# Structures can show the parent of a compound that is named as a salt.
# Target: T1, muscarinic receptor (Cavia porcellus, UniProt H0W1Z3)
# T1 construct: Smooth muscle strips of the urinary bladder were dissected in a Krebs-Henseleit solution; from tissue; host or cells: guinea pig urinary bladder smooth muscle strips
# Experiment: Functional in vitro studies: antagonism of carbachol-induced contraction of urinary bladder smooth muscle strips
# Format: cell-based, guinea pig
# Settings: male guinea pig urinary bladder strips; carbachol agonist; 60 min incubation with antagonist; Krebs-Henseleit pH 7.4, 37° C.; KB from dose ratios (Schild); read-out: KB-value
# Method: Functional in Vitro Studies
# Male guinea pigs, weighing about 300 g, were killed by a blow on the neck and exsanguinated. Smooth muscle strips of the urinary bladder were dissected in a Krebs-Henseleit solution (pH 7.4). The strip preparations were vertically mounted between two hooks in thermostatically controlled (37° C.) organ baths (5 ml). One of the hooks was adjustable and connected to a force transducer (FT 03, Grass Instruments). The Krebs-Henseleit solution was continuously bubbled with carbogen gas (93.5% O2 /6.5% CO2) to maintain the pH at 7.4. Isometric tension was recorded by a Grass Polygraph (Model 79D). A resting tension of approximately 5 mN was initially applied on each muscle strip and the preparations were allowed to stabilise for at least 45 min. The resting tension was repeatedly adjusted and the preparations were washed several times during the stabilisation period.
# Carbachol (carbamylcholine chloride) was used as the standard muscarinic receptor agonist. In each experiment, the viability of the preparations and the reproducibility of their contractile responses were initially tested by two consecutive additions of a submaximal concentration (3×10^-6 M) of carbachol. A concentration-response curve to carbachol was then generated by cumulative addition of carbachol to the organ-bath (i.e., stepwise increase of the agonist concentration until the maximal contractile response was reached), followed by washing out and a resting period of at least 15 min. before a fix concentration of the test compound (antagonist) was added to the organ-bath. After 60 min. of incubation with the antagonist, a second cumulative concentration-responsecurve to carbachol was generated. Responses were expressed as percent of the maximal response to carbachol. EC50 -values for carbachol in the absence (control) and presence of antagonist were graphically derived and dose ratios (r) were calculated. Dissociation constants, KB, for the antagonists were calculated using equation (1) (Schild, H. I., Br. J. Pharmacol. Chemother. 1949, 4, 277-280), where [A] is the concentration of test compound:
# T1 sequence (H0W1Z3 1-590): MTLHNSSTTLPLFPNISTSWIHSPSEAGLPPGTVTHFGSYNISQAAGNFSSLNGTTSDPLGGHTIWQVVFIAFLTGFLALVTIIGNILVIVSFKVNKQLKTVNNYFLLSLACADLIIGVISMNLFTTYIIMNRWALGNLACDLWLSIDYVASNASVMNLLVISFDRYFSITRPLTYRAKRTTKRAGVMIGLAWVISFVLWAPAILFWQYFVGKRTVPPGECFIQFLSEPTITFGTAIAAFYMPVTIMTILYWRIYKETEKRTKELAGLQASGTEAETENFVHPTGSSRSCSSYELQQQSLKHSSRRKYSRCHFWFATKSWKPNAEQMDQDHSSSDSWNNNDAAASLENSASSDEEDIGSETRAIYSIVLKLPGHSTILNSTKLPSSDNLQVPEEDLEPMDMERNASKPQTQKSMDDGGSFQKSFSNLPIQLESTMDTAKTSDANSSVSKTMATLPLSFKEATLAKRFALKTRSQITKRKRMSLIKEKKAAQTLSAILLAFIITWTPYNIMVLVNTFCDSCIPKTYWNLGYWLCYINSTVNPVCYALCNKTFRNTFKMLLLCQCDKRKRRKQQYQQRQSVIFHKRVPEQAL
row,Structure (SMILES),Kb
1,"CC(C)N(CC[C@H](c1ccccc1)c1cc(CNCCOCCO)ccc1O)C(C)C [Example 8, (R)-N,N-Diisopropyl-3-[5-(7-hydroxy-2-aza-5-oxaheptyl)-2-hydroxyphenyl]-3-phenylpropanazine di-(S)-mandelate]",26 nM
2,"CC(C)N(CC[C@H](c1ccccc1)c1cc(N=[N+]=[N-])ccc1O)C(C)C [Example 28, (R)-N,N-Diisopropyl-3-(5-azido-2-hydroxyphenyl)-3-phenylpropanamine hydrochloride]",8.55 nM
3,"CC(=O)NCCCc1ccc(O)c([C@H](CCN(C(C)C)C(C)C)c2ccccc2)c1 [Example 23, (R)-N,N-Diisopropyl-3-[5-3-(acetamidopropyl)-2-hydroxyphenyl]-3-phenylpropanamine hydrochloride]",1.05 nM
4,"Cc1csc(C(CCN(C(C)C)C(C)C)c2ccccc2)n1 (centres unmarked) [Example 39, N,N-Diisopropyl-3-(4-methylthiazol-2-yl)-3-phenyl-propanamine hydrochloride]",235 nM
5,"CC(O)c1ccc(O)c([C@H](CCN(C(C)C)C(C)C)c2ccccc2)c1 (stereo partly drawn) [Example 14, N,N-Diisopropyl-3(R)-[2-hydroxy-5-(1-hydroxyethyl)phenyl]-3-phenylpropanamine fumarate]",4.5 nM

# The next lines start with the values.
row,Kb,Structure (SMILES)
1,814 nM,"CC(C)N(CCC(c1ccccc1)c1cncs1)C(C)C (centres unmarked) [Example 40, N,N-Diisopropyl-3-(thiazol-5-yl)-3-phenylpropanamine hydrochloride]"
2,171 nM,"CC(C)N(CCC(c1ccccc1)c1ccccc1CO)C(C)C (centres unmarked) [Example 10, N,N-Diisopropyl-3-(2-hydroxymethyl)phenyl-3-phenylpropanamine hydrochloride]"
3,3.8 nM,"COC(=O)c1ccc(O)c([C@H](CCN(C(C)C)C(C)C)c2ccccc2)c1 [Example 9, (R)-N,N-Diisopropyl-3-(2-hydroxy-5-methyloxycarbonyl-phenyl)-3-phenylpropanamine hydrochloride]"
